These are literature values, as cited in patent US20240156825A1, “USE OF SELECTIVE VEGFR2 AND FGFR1 INHIBITORS” (Fountain Therapeutics Inc., priority 2022, published 2024).

Read-outs that look alike come from different tables or passages of the source.

Data set [1] concerns the target VEGFR2 (Homo sapiens, UniProt P35968). The note with it: reported IC50 to VEGFR2, read-out: VEGFR2 IC50_μM, cited from earlier work.
In data set [2] the test system is any gene target. The note with it: read-out: Min IC50_μM, cited from earlier work.
[3] abbreviates: next lowest IC50 value to any gene target.
Setting [4] is: lowest reported IC50 to any gene target.
Where [5] appears, read: Table 2, lowest reported IC50 to any gene target.

Chain of VEGFR2 (P35968 20-1356, species assumed): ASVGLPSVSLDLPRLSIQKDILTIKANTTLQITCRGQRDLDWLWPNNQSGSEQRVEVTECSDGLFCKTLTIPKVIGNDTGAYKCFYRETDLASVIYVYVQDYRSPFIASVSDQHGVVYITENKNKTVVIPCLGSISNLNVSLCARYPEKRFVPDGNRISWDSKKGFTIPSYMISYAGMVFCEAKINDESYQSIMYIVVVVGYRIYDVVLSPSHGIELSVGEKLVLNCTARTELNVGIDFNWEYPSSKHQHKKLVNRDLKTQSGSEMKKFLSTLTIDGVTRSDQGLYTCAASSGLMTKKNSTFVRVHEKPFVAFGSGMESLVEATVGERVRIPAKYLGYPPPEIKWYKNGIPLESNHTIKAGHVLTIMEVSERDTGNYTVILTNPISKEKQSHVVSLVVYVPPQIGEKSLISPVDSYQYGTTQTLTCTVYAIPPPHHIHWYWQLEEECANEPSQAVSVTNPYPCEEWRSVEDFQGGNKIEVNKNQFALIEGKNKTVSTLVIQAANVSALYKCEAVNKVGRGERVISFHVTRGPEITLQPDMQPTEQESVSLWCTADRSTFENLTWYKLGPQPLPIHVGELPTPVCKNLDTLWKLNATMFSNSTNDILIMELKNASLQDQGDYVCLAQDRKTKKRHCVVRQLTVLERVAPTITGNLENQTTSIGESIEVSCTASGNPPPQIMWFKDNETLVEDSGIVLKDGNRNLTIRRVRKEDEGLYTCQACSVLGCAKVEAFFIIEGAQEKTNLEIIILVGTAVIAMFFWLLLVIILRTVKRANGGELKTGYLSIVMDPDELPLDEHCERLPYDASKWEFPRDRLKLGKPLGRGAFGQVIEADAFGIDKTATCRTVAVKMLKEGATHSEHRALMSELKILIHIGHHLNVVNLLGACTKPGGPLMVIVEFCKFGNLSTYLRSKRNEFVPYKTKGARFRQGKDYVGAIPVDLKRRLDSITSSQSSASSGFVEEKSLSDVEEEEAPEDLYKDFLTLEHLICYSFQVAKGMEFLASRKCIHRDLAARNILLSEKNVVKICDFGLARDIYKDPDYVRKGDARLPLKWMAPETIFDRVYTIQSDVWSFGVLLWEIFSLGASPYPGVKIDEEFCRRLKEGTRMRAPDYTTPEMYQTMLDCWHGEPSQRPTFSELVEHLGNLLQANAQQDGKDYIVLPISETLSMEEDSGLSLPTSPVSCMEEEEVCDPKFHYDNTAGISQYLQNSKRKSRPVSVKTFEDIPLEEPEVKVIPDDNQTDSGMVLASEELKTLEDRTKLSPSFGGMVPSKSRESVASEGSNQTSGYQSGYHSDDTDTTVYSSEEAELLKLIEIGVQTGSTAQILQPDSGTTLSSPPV

As to `Oc1cc(O)c2cc(O)c(-c3cc(O)c(O)c(O)c3)[o+]c2c1` [compound 68245], the IC50 in data set [1] was 5.09 nM; in data set [2] (setting [3]) it was 6.27 nM.

Turning to `CN1CC(=Cc2ccccn2)C(=O)C(=Cc2ccccn2)C1` [compound 2132479], the IC50 in data set [1] was 1300 nM; in data set [2] (setting [3]) it was 1900 nM.

`COc1cc2c(Nc3ccc(Cl)cc3F)ncnc2cc1OCCN1CCN(C)CC1` [compound 4913175]: the values for the IC50 in data set [1] and in data set [2] (setting [3]) were 30 nM and 100 nM, respectively.

For the compound `COCCOc1cc2ncnc(Nc3ccc(Cl)cc3F)c2cc1OC` [compound 5329011], the IC50 in data set [1] was 7 nM; in data set [2] (setting [3]), 40 nM.

Turning to `COCCOc1cc2ncnc(Nc3cc(O)c(Cl)cc3F)c2cc1OC` [compound 5329013], the IC50 was 2 nM in data set [1] (Table 3, selective inhibitors of VEGFR2) and 2 nM in data set [2] (next lowest IC50 value to any gene target, Table 3).

On to `COc1cc2c(Nc3ccc(Br)cc3F)ncnc2cc1OCCn1ccnn1` [compound 5329032], for which the IC50 in data set [1] is 30 nM.

As to `CCOC(=O)C1CCN(CCN(c2cc(OC)cc(OC)c2)c2ccc3ncc(-c4cnn(C)c4)nc3c2)CC1` [compound 68209310], in data set [2] (setting [4]), the IC50 is 3.39 nM.

`COc1cc(OC)cc(N(CCNCCO)c2ccc3ncc(-c4cnn(C)c4)nc3c2)c1` [compound 68209464]: the IC50 in data set [2] (setting [5]) was 2.24 nM.

Take `COc1cc(OC)cc(N(CC(O)CN2CCCCC2)c2ccc3ncc(-c4cnn(C)c4)nc3c2)c1` (stereo not drawn) [compound 68209482]: the IC50 in data set [2] (setting [4]) is 2.95 nM.

For the compound `COc1cc(N(CCNC(C)C)c2ccc3ncc(-c4cnn(C)c4)nc3c2)cc2c1OCO2` [compound 68209505], the IC50 in data set [2] (setting [5]) is 2.88 nM.

Turning to `COc1cc(OC)c(Cl)c(N(CCNC(C)C)c2ccc3ncc(-c4cnn(C)c4)nc3c2)c1Cl` [compound 88888615], the IC50 in data set [2] (setting [5]) is 9.12 nM.

Consider `COc1cc(OC)cc(N(CCNC(C)C)c2ccc3ncc(-c4cnn(C)c4)nc3c2)c1` [compound 89447047], for which the IC50 in data set [2] (setting [5]) is 1.74 nM.

For the compound `COc1cc(OC)cc(N(CCN(Cc2ccc(N)cc2)C(C)C)c2ccc3ncc(-c4cnn(C)c4)nc3c2)c1` [compound 89447175], the IC50 in data set [2] (setting [5]) was 5.89 nM.

With `COc1cc(OC)cc(N(CCCN2C[C@@H](C)O[C@@H](C)C2)c2ccc3ncc(-c4cnn(C)c4)nc3c2)c1` [compound 89447204], in data set [2] (setting [5]), the IC50 was 3.55 nM.

Take `COc1cc(OC)cc(N(CCN2[C@@H](C)CC[C@@H]2C)c2ccc3ncc(-c4cnn(C)c4)nc3c2)c1` [compound 89447247]: the IC50 in data set [2] (setting [4]) is 3.8 nM.

Consider `COc1cc(OC)cc(N(CC#Cc2cc(C(N)=O)ccn2)c2ccc3ncc(-c4cnn(C)c4)nc3c2)c1` [compound 89447328], for which the IC50 in data set [2] (setting [5]) is 2.46 nM.

Regarding `COc1cccnc1C#CCN(c1ccc2ncc(-c3cnn(C)c3)nc2c1)c1c(Cl)c(OC)cc(OC)c1Cl` [compound 89447340], the IC50 in data set [2] (setting [5]) is 5.89 nM.

Consider `COc1cc(OC)cc(N(CC#Cc2cc(CO)ccn2)c2ccc3ncc(-c4cnn(C)c4)nc3c2)c1` [compound 89447343], for which, in data set [2] (setting [5]), the IC50 is 3.39 nM.

In the case of `COc1cc(OC)cc(N(CC#Cc2nccnc2Cl)c2ccc3ncc(-c4cnn(C)c4)nc3c2)c1` [compound 89447345], the IC50 in data set [2] (setting [5]) is 15.8 nM.

On to `COc1cc(OC)cc(N(CCN2CCN(C(=O)C3CC3)CC2)c2ccc3ncc(-c4cnn(C)c4)nc3c2)c1` [compound 89447346], for which the IC50 in data set [2] (setting [4]) was 7.76 nM.

On to `COc1cc(OC)cc(N(CCCN2[C@H](C)CC[C@@H]2C)c2ccc3ncc(-c4cnn(C)c4)nc3c2)c1` [compound 89447423], for which, in data set [2] (setting [4]), the IC50 is 3.24 nM.

Consider `COc1cc(OC)cc(N(CC#Cc2cnccn2)c2ccc3ncc(-c4cnn(C)c4)nc3c2)c1` [compound 89447472], for which the IC50 in data set [2] (setting [4]) was 17.8 nM.

Regarding `COc1cc(OC)cc(N(CC#Cc2cc(N)ccn2)c2ccc3ncc(-c4cnn(C)c4)nc3c2)c1` [compound 89447499], in data set [2] (setting [5]), the IC50 was 2.95 nM.

For `COc1cc(OC)cc(N(CC#CC2(O)CCNCC2)c2ccc3ncc(-c4cnn(C)c4)nc3c2)c1` [compound 89447547], the IC50 in data set [2] (setting [4]) was 7.08 nM.

With `COc1cc(OC)cc(N(CCNC(C)C)c2ccc3ncc(-c4cnn(C)c4)nc3c2)c1` [compound 118014709], the IC50 in data set [2] (setting [5]) was 2.29 nM.

For `C=CC(=O)N1CCN(CCCn2c(=O)c(-c3c(Cl)c(OC)cc(OC)c3Cl)cc3cnc(NC)nc32)CC1` [compound 118295624], the IC50 in data set [2] (setting [5]) was 1.3 nM.

For `COc1cc2nccc(Oc3ccc(NC(=O)Nc4cc(C)on4)c(Cl)c3)c2cc1OC` [compound 118737468], the IC50 in data set [2] (setting [3]) was 3.26 nM.

In the case of `c1ccc(-c2cnc3c(Nc4ccc(N5CCCCC5)cc4)cncc3n2)cc1` [compound 127030424], in data set [2] (setting [3]), the IC50 is 2340 nM.

For `CNCCN(c1cc(OC)cc(OC)c1)c1ccc2ncc(-c3cnn(CC(=O)NC)c3)nc2c1` [compound 134131862], the IC50 in data set [2] (setting [5]) is 2.4 nM.

For the compound `CNC(=O)Cn1cc(-c2cnc3ccc(N(CCNC(C)C)c4cc(OC)cc(OC)c4)cc3n2)cn1` [compound 134132789], the IC50 in data set [2] (setting [5]) is 3.39 nM.

On to `CNCCN(c1cc(OC)cc(OC)c1)c1ccc2ncc(-c3cnn(C(C)C)c3)nc2c1` [compound 134133926], for which the IC50 in data set [2] (setting [5]) was 2.88 nM.

Turning to `COc1cc(OC)cc(N(CCCN2[C@H](C)CC[C@@H]2C)c2ccc3ncc(-c4cnn(C)c4)nc3c2)c1` [compound 134135888], the IC50 in data set [2] (setting [5]) is 2.51 nM.

In the case of `COc1cc(OC)cc(N(CCNC(C)C)c2ccc3ncc(-c4c(C)nn(C)c4C)nc3c2)c1` [compound 134138098], the IC50 in data set [2] (setting [5]) was 10.7 nM.

On to `COc1cccc(N(CCNC(C)C)c2ccc3ncc(-c4cnn(C)c4)nc3c2)c1` [compound 134138612], for which the IC50 in data set [2] (setting [4]) is 7.24 nM.

Turning to `COc1cc(F)cc(N(CCCN2CCCC2)c2ccc3ncc(-c4cn[nH]c4)nc3c2)c1` [compound 134140310], the IC50 in data set [2] (setting [5]) is 1.86 nM.

As for `CNC1CCN(CCCN(c2cc(OC)cc(OC)c2)c2ccc3ncc(-c4cnn(C)c4)nc3c2)C1` (stereo not drawn) [compound 134140450], in data set [2] (setting [5]), the IC50 was 2.24 nM.

`COc1cc(OC)cc(N(CCNC(C)C)c2ccc3ncc(-c4cnn(CC5CCOCC5)c4)nc3c2)c1` [compound 134141677]: in data set [2] (setting [5]), the IC50 was 2.19 nM.

In the case of `COc1cc(OC)cc(N(CCCN2CCC(F)(F)C2)c2ccc3ncc(-c4cn[nH]c4)nc3c2)c1` [compound 134142457], the IC50 in data set [2] (setting [5]) was 10.5 nM.

Turning to `COc1cc(OC)cc(N(CCNC(C)C)c2ccc3ncc(-c4cnn(C5CCN(C)CC5)c4)nc3c2)c1` [compound 134142615], in data set [2] (setting [5]), the IC50 was 2.95 nM.

Consider `COc1cc(OC)cc(N(CCCN2CCCC2)c2ccc3ncc(-c4cnn(CCO)c4)nc3c2)c1` [compound 134144550], for which the IC50 in data set [2] (setting [5]) was 1.91 nM.

Turning to `COc1cc(OC)c(C)c(N(CCCN2CCCC2)c2ccc3ncc(-c4cnn(C)c4)nc3c2)c1` [compound 134145340], the IC50 in data set [2] (setting [5]) is 3.55 nM.

As to `COc1cc(OC)cc(N(CCN2CCC[C@H]2C)c2ccc3ncc(-c4cnn(C)c4)nc3c2)c1` [compound 134145938], in data set [2] (setting [5]), the IC50 was 1.99 nM.

Consider `COc1cc(OC)cc(N(CCN2CCCCC2C)c2ccc3ncc(-c4cnn(C)c4)nc3c2)c1` (stereo not drawn) [compound 134146514], for which the IC50 in data set [2] (setting [5]) is 2.51 nM.

As for `COc1cc(OC)cc(N(CCCN2CCC[C@H]2C)c2ccc3ncc(-c4cnn(C)c4)nc3c2)c1` [compound 134146811], the IC50 in data set [2] (setting [5]) was 2.14 nM.

Take `COc1cc(OC)c(C)c(N(CCNC(C)C)c2ccc3ncc(-c4cnn(C)c4)nc3c2)c1` [compound 134147170]: the IC50 in data set [2] (setting [5]) is 6.46 nM.

Consider `COc1cc(OC)cc(N(CCNC(C)C)c2ccc3ncc(-c4cn[nH]c4)nc3c2)c1` [compound 134148952], for which the IC50 in data set [2] (setting [5]) was 3.39 nM.

Turning to `CNCC(O)CN(c1cc(OC)cc(OC)c1)c1ccc2ncc(-c3cnn(C)c3)nc2c1` (stereo not drawn) [compound 134149546], the IC50 in data set [2] (setting [4]) was 2.82 nM.

Turning to `COc1cc(OC)cc(N(CCCN2CCCC2(C)C)c2ccc3ncc(-c4cnn(C)c4)nc3c2)c1` [compound 134151320], the IC50 in data set [2] (setting [4]) was 1.91 nM.

Consider `COc1cc(OC)cc(N(CCN2CCCC2)c2ccc3ncc(-c4cn[nH]c4)nc3c2)c1` [compound 134153401], for which the IC50 in data set [2] (setting [5]) is 2.46 nM.

`COc1ccc(Cl)c(N(CCNC(C)C)c2ccc3ncc(-c4cnn(C)c4)nc3c2)c1` [compound 134153603]: the IC50 in data set [2] (setting [5]) was 3.71 nM.

In the case of `COc1cc(F)cc(N(CCNC(C)C)c2ccc3ncc(-c4cn[nH]c4)nc3c2)c1` [compound 134153940], in data set [2] (setting [5]), the IC50 is 2.09 nM.

On to `COc1cc(OC)cc(N(CCN2CCC(O)C2)c2ccc3ncc(-c4cnn(C)c4)nc3c2)c1` (stereo not drawn) [compound 134154939], for which the IC50 in data set [2] (setting [4]) was 1.82 nM.

`COc1cc(OC)cc(N(CCCN2CCC(N3C[C@@H](C)O[C@@H](C)C3)C2)c2ccc3ncc(-c4cnn(C)c4)nc3c2)c1` (stereo partly drawn) [compound 134155786]: in data set [2] (setting [5]), the IC50 was 4.57 nM.

Turning to `COc1cc(OC)cc(N(CCN2CCCC2)c2ccc3ncc(-c4cnn(C)c4)nc3c2)c1` [compound 134156523], the IC50 in data set [2] (setting [5]) is 1.78 nM.

As to `COc1ccc(OC)c(N(CCCN2CCCC2)c2ccc3ncc(-c4cnn(C)c4)nc3c2)c1` [compound 134157453], the IC50 in data set [2] (setting [4]) is 38 nM.

`COc1cc(OC)cc(N(CCNC(C)C)c2ccc3ncc(-c4cn[nH]c4)nc3c2)c1` [compound 134157816]: the IC50 in data set [2] (setting [5]) is 2.82 nM.

Consider `COc1cc(OC)cc(N(CCN2CCC(N)C2)c2ccc3ncc(-c4cnn(C)c4)nc3c2)c1` (stereo not drawn) [compound 134157853], for which the IC50 in data set [2] (setting [5]) is 1.99 nM.

Regarding `CCN(Cc1ccccc1)c1nc(O)nc(Nc2ccc3ncsc3c2)n1` [compound 135509841], the IC50 in data set [2] (setting [3]) is 400 nM.

As for `CC(C)(C)NC(=O)Nc1ccc2[nH]nc(-c3nc4ccc(N5CCC(N6CCCCC6)CC5)cc4[nH]3)c2c1` [compound 135819982], the IC50 in data set [2] (setting [4]) was 1 nM.

Regarding `CC(C)n1nc(-c2ccc3cc(O)ccc3c2)c2c(N)ncnc21` [compound 135947979], in data set [2] (setting [3]), the IC50 is 20 nM.

As for `COC(=O)c1ccc2c(C(=Nc3ccc(N4CCC(CN5CCN(C)CC5)C4=O)cc3)c3ccccc3)c(O)[nH]c2c1` (stereo not drawn) [compound 136299423], in data set [2] (setting [3]), the IC50 is 45 nM.
